Results: publication PMC4506051, “Pharmacokinetic Profiles of Active Ingredients and Its Metabolites Derived from Rikkunshito, a Ghrelin Enhancer, in Healthy Japanese Volunteers: A Cross-Over, Randomized Study” (PLoS ONE, 2015)
Read-outs that look alike come from different tables or passages of the source.

Assays:
[1] = Method validation: short-term stability in plasma
[2] = Method validation: stability in standard, stock and working solution; conditions: for Short-term stability of standard solution, RR: at room temperature for 24 h
[3] = cited from earlier work
[4] = Method validation: long-term stability in plasma
[5] = Method validation: stability in blood
[6] = Exploratory trial: plasma concentration of rikkunshito ingredients after single oral rikkunshito 7.5 g; type: in vivo
Procedure, shortened: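 Plasma and urine levels were measured by LC–MS/MS after one 7.5 g oral dose of rikkunshito. Samples were collected before dosing and at 0.5–8 h for blood, or in 0–4 h and 4–8 h fractions for urine. Synephrine was determined after protein-removal plate cleanup; the other ingredients after β-glucuronidase deconjugation (2 h, 37°C) and SPE.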

[7] = Dose proportionality (linearity) test by power model for C max and AUC0-last; conditions: for Dose proportionality test using power model, β: rikkunshito 2.5, 5.0 or 7.5 g; for Dose proportionality test using power model, Inference: linear when 90% CI of β included 1, CIlower ≥0.8, and CIupper ≤1.25
Procedure: The dose proportionality was analyzed via a power model [21, 22]. […] Evaluation of linearity of the dosage-exposure relationship was conducted with Phoenix WinNonlin and SAS 9.2 (SAS Institute, Inc., Cary, NC).

[8] = Method validation: post-preparative stability (autosampler)
[9] = Method validation: freeze-thaw stability in plasma
[10] = Stability of ingredients in gastric pH solution (pH 1.2, 37°C); type: physicochemical
Procedure: Rikkunshito gradually dissolved in acidic solution (pH 1.2) at 37°C, and the concentration of atractylodin after adding 0.25, 0.5, 1, and 2 h was measured by gas chromatography–mass spectrometry.

CC1(C)[C@@H](O)CC[C@]2(C)[C@H]3C(=O)C=C4[C@@H]5C[C@@](C)(C(=O)O)CC[C@]5(C)CC[C@@]4(C)[C@]3(C)CC[C@@H]12 [18β-Glycyrrhetinic acid]
Short-term stability, RR ([1]; 1600 pg/mL, at room temperature for 4 h): 89.0% | Short-term stability, RR ([1]; 1600 pg/mL, at room temperature for 25 h): 90.2% | Short-term stability, RR ([1]; 64000 pg/mL, at room temperature for 4 h): 98.9% | Short-term stability, RR ([1]; 64000 pg/mL, at room temperature for 25 h): 105.0% | Working solution stability, RR ([2]; 8 ng/mL, refrigerator (1°C to 8°C) for 53 days): 108.4% | Working solution stability, RR ([2]; 800 ng/mL, refrigerator (1°C to 8°C) for 53 days): 100.7% | Stock solution stability, RR ([2]; 0.8 mg/mL, refrigerator (1°C to 8°C) for 54 days): 54 days: 100.0% | Stock solution stability, RR ([2]; 0.8 mg/mL, refrigerator (1°C to 8°C) for 129 days): 129 days: 100.0% | half-life ([3]; protocol rationale for final sampling time): approximately 10 h | Long-term stability, RR ([4]; 1600 pg/mL, freezer (−30°C to −10°C) for 13 days): 102.6% | Long-term stability, RR ([4]; 1600 pg/mL, freezer (−30°C to −10°C) for 39 days): 108.3% | Long-term stability, RR ([4]; 1600 pg/mL, freezer (−30°C to −10°C) for 228 days): 113.5% | Long-term stability, RR ([4]; 64000 pg/mL, freezer (−30°C to −10°C) for 13 days): 113.1% | Long-term stability, RR ([4]; 64000 pg/mL, freezer (−30°C to −10°C) for 39 days): 104.4% | Long-term stability, RR ([4]; 64000 pg/mL, freezer (−30°C to −10°C) for 228 days): 109.2% | Stability in blood, RR ([5]; 1600 pg/mL, at room temperature for 2 h): 104.2% | Stability in blood, RR ([5]; 1600 pg/mL, on ice for 2 h): 108.8% | Stability in blood, RR ([5]; 64000 pg/mL, at room temperature for 2 h): 98.2% | Stability in blood, RR ([5]; 64000 pg/mL, on ice for 2 h): 99.1% | Cmax ([6]; human, in vivo): 58.2 ng/mL | Dose proportionality test using power model, β ([7]; AUC0-last): 0.979 | Dose proportionality test using power model, β ([7]; Cmax): 0.819 | Post-preparative stability, RR ([8]; 1600 pg/mL, autosampler set at 4°C for 24 h): 106.0% | Post-preparative stability, RR ([8]; 1600 pg/mL, autosampler set at 4°C for 48 h): 110.8% | Post-preparative stability, RR ([8]; 64000 pg/mL, autosampler set at 4°C for 24 h): 104.9% | Post-preparative stability, RR ([8]; 64000 pg/mL, autosampler set at 4°C for 48 h): 111.4%

C/C=C/C#CC#C/C=C/c1ccco1 [Atractylodin]
Short-term stability, RR ([1]; atractylodin 0.600 ng/mL, deep freezer (−90.4°C to −69.5°C) for 4 h): 95.6% | Short-term stability, RR ([1]; atractylodin 0.600 ng/mL, deep freezer for 24 h): 101.5% | Short-term stability, RR ([1]; atractylodin 16.0 ng/mL, deep freezer (−90.4°C to −69.5°C) for 4 h): 101.9% | Short-term stability, RR ([1]; atractylodin 16.0 ng/mL, deep freezer for 24 h): 102.9% | Short-term stability of standard solution, RR ([2]; atractylodin 1.00 ng/mL): 104.6% | Short-term stability of standard solution, RR ([2]; atractylodin 5000 ng/mL): 106.7% | Maximum plasma concentration in the preliminary pharmacokinetics study ([3]; 7.5 g dosage): 1.84 ± 0.626 ng/mL | Long-term stability, RR ([4]; atractylodin 0.600 ng/mL, deep freezer, 15 days): 98.4% | Long-term stability, RR ([4]; atractylodin 0.600 ng/mL, deep freezer, 29 days): 88.7% | Long-term stability, RR ([4]; atractylodin 0.600 ng/mL, deep freezer, 57 days): 101.4% | Long-term stability, RR ([4]; atractylodin 0.600 ng/mL, deep freezer, 169 days): 95.2% | Long-term stability, RR ([4]; atractylodin 16.0 ng/mL, deep freezer, 15 days): 98.6% | Long-term stability, RR ([4]; atractylodin 16.0 ng/mL, deep freezer, 29 days): 98.6% | Long-term stability, RR ([4]; atractylodin 16.0 ng/mL, deep freezer, 57 days): 109.4 | Long-term stability, RR ([4]; atractylodin 16.0 ng/mL, deep freezer, 169 days): 102.8% | Freeze-thaw stability, RR ([9]; atractylodin 0.600 ng/mL, deep freezer, 2 cycles): 109.3% | Freeze-thaw stability, RR ([9]; atractylodin 0.600 ng/mL, deep freezer, 3 cycles): 115.1% | Freeze-thaw stability, RR ([9]; atractylodin 16.0 ng/mL, deep freezer, 2 cycles): 122.6% | Freeze-thaw stability, RR ([9]; atractylodin 16.0 ng/mL, deep freezer, 3 cycles): 133.6% | Stability in blood, remaining ratio (RR) ([5]; atractylodin 1.00 ng/mL, at room temperature for 2 h): 90.3% | Stability in blood, RR ([5]; atractylodin 1.00 ng/mL, on ice for 2 h): 93.8% | concentration at 0 h ([6]; human, in vivo, 0 h (preadministration), single oral rikkunshito 7.5 g, mean ± S.D., n = 4, read-out: Plasma concentration, 0 h): 0.328 ± 0.655 ng/mL | concentration at 0.5 h ([6]; human, in vivo, 0.5 h after single oral rikkunshito 7.5 g, mean ± S.D., n = 4, read-out: Plasma concentration, 0.5 h): 1.19 ± 0.913 ng/mL | concentration at 1 h ([6]; human, in vivo, 1 h after single oral rikkunshito 7.5 g, mean ± S.D., n = 4): 1.38 ± 1.15 ng/mL | concentration at 2 h ([6]; human, in vivo, 2 h after single oral rikkunshito 7.5 g, mean ± S.D., n = 4, read-out: Plasma concentration, 2 h): 0.863 ± 1.01 ng/mL | concentration at 4 h ([6]; human, in vivo, 4 h after single oral rikkunshito 7.5 g, mean ± S.D., n = 4, read-out: Plasma concentration, 4 h): 1.14 ± 0.899 ng/mL | concentration at 8 h ([6]; human, in vivo, 8 h after single oral rikkunshito 7.5 g, mean ± S.D., n = 4, read-out: Plasma concentration, 8 h): 0.295 ± 0.59 ng/mL | Cmax ([6]; human, in vivo, rikkunshito 7.5 g, four subjects, highest mean concentration over 0–8 h, read-out: C max in plasma (exploratory trial)): 1.38 ng/mL | Stability in a solution with the same pH as that in the stomach ([10]; pH 1.2, 37°C, S10 Table): stable | Stability in gastric pH solution, Quantitative value ([10]; rikkunshito in acidic solution (pH 1.2) at 37°C, 0.5 h): 9.03 ng/mL | Stability in gastric pH solution, Quantitative value ([10]; rikkunshito in acidic solution (pH 1.2) at 37°C, 1 h): 9.72 ng/mL | Stability in gastric pH solution, Quantitative value ([10]; rikkunshito in acidic solution (pH 1.2) at 37°C, 2 h): 8.13 ng/mL | Dose proportionality test using power model, Inference ([7]; AUC0-last): Nonlinear | Dose proportionality test using power model, β ([7]; AUC0-last): 1.60 | Dose proportionality test using power model, Inference ([7]; Cmax): Linear^a | Dose proportionality test using power model, β ([7]; Cmax): 0.988 | Post-preparative stability, RE ([8]; atractylodin 0.600 ng/mL, autosampler set at 4°C for 24 h): -3.8% | Post-preparative stability, RE ([8]; atractylodin 0.600 ng/mL, autosampler set at 4°C for 48 h): 4.0% | Post-preparative stability, RE ([8]; atractylodin 16.0 ng/mL, autosampler set at 4°C for 24 h): 9.0% | Post-preparative stability, RE ([8]; atractylodin 16.0 ng/mL, autosampler set at 4°C for 48 h): 8.7%

O=C(/C=C/c1ccc(O)cc1)c1ccc(O)cc1O [Isoliquiritigenin]
Short-term stability, RR ([1]; 4 pg/mL, at room temperature for 4 h): 97.0% | Short-term stability, RR ([1]; 4 pg/mL, at room temperature for 24 h): 96.5% | Short-term stability, RR ([1]; 160 pg/mL, at room temperature for 4 h): 85.2% | Short-term stability, RR ([1]; 160 pg/mL, at room temperature for 24 h): 101.2% | Working solution stability, RR ([2]; 0.02 ng/mL, refrigerator (1°C to 8°C) for 53 days): 89.9% | Working solution stability, RR ([2]; 0.02 ng/mL, refrigerator (1°C to 8°C) for 128 days): 108.2% | Working solution stability, RR ([2]; 2 ng/mL, refrigerator (1°C to 8°C) for 53 days): 92.7% | Working solution stability, RR ([2]; 2 ng/mL, refrigerator (1°C to 8°C) for 128 days): 102.2% | Stock solution stability, RR ([2]; 0.1 mg/mL, refrigerator (1°C to 8°C) for 54 days): 54 days: 96.9% | Stock solution stability, RR ([2]; 0.1 mg/mL, refrigerator (1°C to 8°C) for 129 days): 129 days: 96.9% | Long-term stability, RR ([4]; 4 pg/mL, freezer (−30°C to −10°C) for 22 days): 99.0% | Long-term stability, RR ([4]; 4 pg/mL, freezer (−30°C to −10°C) for 31 days): 105.0% | Long-term stability, RR ([4]; 4 pg/mL, freezer (−30°C to −10°C) for 220 days): 102.8% | Long-term stability, RR ([4]; 160 pg/mL, freezer (−30°C to −10°C) for 22 days): 95.0% | Long-term stability, RR ([4]; 160 pg/mL, freezer (−30°C to −10°C) for 31 days): 87.7% | Long-term stability, RR ([4]; 160 pg/mL, freezer (−30°C to −10°C) for 220 days): 85.5% | Freeze-thaw stability, RR ([9]; 4 pg/mL, deep freezer (−30°C to −10°C), after 3 cycles of freeze-thaw): 95.3% | Freeze-thaw stability, RR ([9]; 160 pg/mL, deep freezer (−30°C to −10°C), after 3 cycles of freeze-thaw): 88.3% | Stability in blood, RR ([5]; 4 pg/mL, at room temperature for 2 h): 81.0% | Stability in blood, RR ([5]; 4 pg/mL, on ice for 2 h): 103.0% | Stability in blood, RR ([5]; 160 pg/mL, at room temperature for 2 h): 46.8% | Stability in blood, RR ([5]; 160 pg/mL, on ice for 2 h): 90.2% | Plasma concentration, 0 h ([6]; 0 h (preadministration), single oral rikkunshito 7.5 g, mean ± S.D., n = 4): BQL | Plasma concentration, 1 h ([6]; 1 h after single oral rikkunshito 7.5 g, mean ± S.D., n = 4): BQL | Plasma concentration, 4 h ([6]; 4 h after single oral rikkunshito 7.5 g, mean ± S.D., n = 4): BQL | Plasma concentration, 8 h ([6]; 8 h after single oral rikkunshito 7.5 g, mean ± S.D., n = 4): BQL | concentration at 0.5 h ([6]; human, in vivo, po): 0.0153 ng/mL | concentration at 2 h ([6]; human, in vivo, po): 0.0171 ± 0.0343 ng/mL | Plasma concentration, 0.5 h ([6]; human, in vivo, po, 0.5 h): 0.0153 ± 0.018 ng/mL | Stability in gastric pH solution, Quantitative value ([10]; 0.5 h, pH 1.2): 15.2 ng/mL | Stability in gastric pH solution, Quantitative value ([10]; 1 h, pH 1.2): 15.5 ng/mL | Stability in gastric pH solution, Quantitative value ([10]; 2 h, pH 1.2): 15.2 ng/mL | Dose proportionality test using power model, β ([7]; AUC0-last): 1.27 | Dose proportionality test using power model, β ([7]; Cmax): 0.692 | Post-preparative stability, RR ([8]; 4 pg/mL, autosampler set at 4°C for 25 h): 110.0% | Post-preparative stability, RR ([8]; 4 pg/mL, autosampler set at 4°C for 48 h): 88.0% | Post-preparative stability, RR ([8]; 160 pg/mL, autosampler set at 4°C for 25 h): 115.2% | Post-preparative stability, RR ([8]; 160 pg/mL, autosampler set at 4°C for 48 h): 93.8%
